Assays:
Test in all cases: relative viability (nuclei count vs DMSO), 5 days (fraction); higher = more cells survive
Veliparib + Luminespib = compound: C[C@]1(c2nc3c(C(N)=O)cccc3[nH]2)CCCN1 [Veliparib] + CCNC(=O)c1noc(-c2cc(C(C)C)c(O)cc2O)c1-c1ccc(CN2CCOCC2)cc1 [Luminespib] (partner 0.01 µM)
Outline: (§1)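 Dosing by pin tool came one day after lung cancer cell lines were seeded in 1536-well plates, using either one drug or a fixed anchor-drug dose plus five library-drug doses (not always all listed) in √10 steps. After 5 days, nuclei were counted on 4× images. Relative viability is treated-well nuclei count divided by vehicle-well nuclei count, and values are medians of duplicate plates.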

[1] = compound: COC1=CC=C(C=C1)CN2C=CC3=C2C=C(C=C3)C(=O)NO + CS(=O)(=O)CCNCc1ccc(-c2ccc3ncnc(Nc4ccc(OCc5cccc(F)c5)c(Cl)c4)c3c2)o1 [Lapatinib] (partner 2 µM)
Outline: as §1

[2] = compound: COC1=CC=C(C=C1)CN2C=CC3=C2C=C(C=C3)C(=O)NO + CC1(C)CCC(c2ccc(Cl)cc2)=C(CN2CCN(c3ccc(C(=O)NS(=O)(=O)c4ccc(N[C@H](CCN5CCOCC5)CSc5ccccc5)c(S(=O)(=O)C(F)(F)F)c4)cc3)CC2)C1 [Navitoclax] (partner 0.5 µM)
Outline: as §1

Veliparib + Dasatinib = compound: C[C@]1(c2nc3c(C(N)=O)cccc3[nH]2)CCCN1 [Veliparib] + Cc1nc(Nc2ncc(C(=O)Nc3c(C)cccc3Cl)s2)cc(N2CCN(CCO)CC2)n1 [Dasatinib] (partner 0.075 µM)
Outline: as §1

EMC-BAC-2
relative viability (Veliparib + Luminespib; first compound 0.02 µM): 1.24 | relative viability (Veliparib + Luminespib; first compound 0.06325 µM): 1.09 | relative viability (Veliparib + Luminespib; first compound 0.2 µM): 1.28 | relative viability (Veliparib + Luminespib; first compound 0.6325 µM): 1.12 | relative viability (Veliparib + Luminespib; first compound 2 µM): 1.21 | relative viability ([1]; first compound 0.08 µM): 0.613 | relative viability ([1]; first compound 0.253 µM): 0.884 | relative viability ([1]; first compound 0.8 µM): 0.954 | relative viability ([1]; first compound 2.53 µM): 0.906 | relative viability ([1]; first compound 8 µM): 0.819 | relative viability ([2]; first compound 0.08 µM): 0.993 | relative viability ([2]; first compound 0.253 µM): 1.21 | relative viability ([2]; first compound 0.8 µM): 1.16 | relative viability ([2]; first compound 2.53 µM): 1.21 | relative viability ([2]; first compound 8 µM): 1.15 | relative viability (Veliparib + Dasatinib; first compound 0.02 µM): 0.362 | relative viability (Veliparib + Dasatinib; first compound 0.06325 µM): 0.27 | relative viability (Veliparib + Dasatinib; first compound 0.2 µM): 0.333 | relative viability (Veliparib + Dasatinib; first compound 0.6325 µM): 0.305 | relative viability (Veliparib + Dasatinib; first compound 2 µM): 0.315

H3255
relative viability (Veliparib + Luminespib; first compound 0.02 µM): 0.698 | relative viability (Veliparib + Luminespib; first compound 0.06325 µM): 0.717 | relative viability (Veliparib + Luminespib; first compound 0.2 µM): 0.778 | relative viability (Veliparib + Luminespib; first compound 0.6325 µM): 0.894 | relative viability (Veliparib + Luminespib; first compound 2 µM): 0.813 | relative viability ([1]; first compound 0.08 µM): 0.184 | relative viability ([1]; first compound 0.253 µM): 0.247 | relative viability ([1]; first compound 0.8 µM): 0.221 | relative viability ([1]; first compound 2.53 µM): 0.238 | relative viability ([1]; first compound 8 µM): 0.226 | relative viability ([2]; first compound 0.08 µM): 0.574 | relative viability ([2]; first compound 0.253 µM): 0.501 | relative viability ([2]; first compound 0.8 µM): 0.503 | relative viability ([2]; first compound 2.53 µM): 0.541 | relative viability ([2]; first compound 8 µM): 0.46 | relative viability (Veliparib + Dasatinib; first compound 0.02 µM): 0.303 | relative viability (Veliparib + Dasatinib; first compound 0.06325 µM): 0.344 | relative viability (Veliparib + Dasatinib; first compound 0.2 µM): 0.253 | relative viability (Veliparib + Dasatinib; first compound 0.6325 µM): 0.402 | relative viability (Veliparib + Dasatinib; first compound 2 µM): 0.32

SK-LU-1
relative viability (Veliparib + Luminespib; first compound 0.02 µM): 0.227 | relative viability (Veliparib + Luminespib; first compound 0.06325 µM): 0.195 | relative viability (Veliparib + Luminespib; first compound 0.2 µM): 0.232 | relative viability (Veliparib + Luminespib; first compound 0.6325 µM): 0.199 | relative viability (Veliparib + Luminespib; first compound 2 µM): 0.22 | relative viability ([1]; first compound 0.08 µM): 0.711 | relative viability ([1]; first compound 0.253 µM): 0.781 | relative viability ([1]; first compound 0.8 µM): 1.04 | relative viability ([1]; first compound 2.53 µM): 0.905 | relative viability ([1]; first compound 8 µM): 0.81 | relative viability ([2]; first compound 0.08 µM): 0.849 | relative viability ([2]; first compound 0.253 µM): 1 | relative viability ([2]; first compound 0.8 µM): 1 | relative viability ([2]; first compound 2.53 µM): 0.815 | relative viability ([2]; first compound 8 µM): 0.745 | relative viability (Veliparib + Dasatinib; first compound 0.02 µM): 0.185 | relative viability (Veliparib + Dasatinib; first compound 0.06325 µM): 0.173 | relative viability (Veliparib + Dasatinib; first compound 0.2 µM): 0.175 | relative viability (Veliparib + Dasatinib; first compound 0.6325 µM): 0.17 | relative viability (Veliparib + Dasatinib; first compound 2 µM): 0.187

BEN
relative viability (Veliparib + Luminespib; first compound 0.02 µM): 0.161 | relative viability (Veliparib + Luminespib; first compound 0.06325 µM): 0.188 | relative viability (Veliparib + Luminespib; first compound 0.2 µM): 0.308 | relative viability (Veliparib + Luminespib; first compound 0.6325 µM): 0.557 | relative viability (Veliparib + Luminespib; first compound 2 µM): 0.148 | relative viability ([1]; first compound 0.08 µM): 0.552 | relative viability ([1]; first compound 0.253 µM): 0.552 | relative viability ([1]; first compound 0.8 µM): 0.637 | relative viability ([1]; first compound 2.53 µM): 0.78 | relative viability ([1]; first compound 8 µM): 0.621 | relative viability ([2]; first compound 0.08 µM): 0.0556 | relative viability ([2]; first compound 0.253 µM): 0.0746 | relative viability ([2]; first compound 0.8 µM): 0.0683 | relative viability ([2]; first compound 2.53 µM): 0.156 | relative viability ([2]; first compound 8 µM): 0.0729 | relative viability (Veliparib + Dasatinib; first compound 0.02 µM): 0.232 | relative viability (Veliparib + Dasatinib; first compound 0.06325 µM): 0.292 | relative viability (Veliparib + Dasatinib; first compound 0.2 µM): 0.377 | relative viability (Veliparib + Dasatinib; first compound 0.6325 µM): 0.361 | relative viability (Veliparib + Dasatinib; first compound 2 µM): 0.266

From the supplement of paper PMC10307832
